Columns and labels:
[1] = molecular target: Casein kinase I isoform delta (Homo sapiens) (UniProt P48730); assay: Inhibition of human CK1d at 10 uM after 60 mins by TR-FRET assay; values are per cent of control
[2] = test system: Angiopoietin-1 receptor (Homo sapiens), Q02763 [R849W]; assay: Inhibition of human Tie2 R849W mutant at 10 uM after 60 mins by TR-FRET assay; values are per cent of control
[3] = molecular target: Macrophage-stimulating protein receptor (Homo sapiens) (UniProt Q04912); assay: Inhibition of human Ron at 10 uM after 60 mins by TR-FRET assay; conditions: values are per cent of control
[4] = molecular target: Platelet-derived growth factor receptor beta (Homo sapiens) (UniProt P09619); assay: Inhibition of human PDGFRbeta at 10 uM after 60 mins by TR-FRET assay; values are per cent of control
[5] = molecular target: Protein-tyrosine kinase 6 (Homo sapiens) (UniProt Q13882); assay: Inhibition of human BRK at 10 uM after 60 mins by TR-FRET assay; values are per cent of control
[6] = molecular target: Tyrosine-protein kinase JAK3 (Homo sapiens) (UniProt P52333); assay: Inhibition of human JAK3 at 10 uM after 60 mins by TR-FRET assay; conditions: values are per cent of control
[7] = molecular target: Tyrosine-protein kinase Mer (Homo sapiens) (UniProt Q12866); assay: Inhibition of human Mer at 10 uM after 60 mins by TR-FRET assay; values are per cent of control
[8] = test system: Mast/stem cell growth factor receptor Kit (Homo sapiens), P10721 [D816V]; assay: Inhibition of human c-Kit D816V mutant at 10 uM after 60 mins by TR-FRET assay; values are per cent of control
[9] = molecular target: Fibroblast growth factor receptor 1 (Homo sapiens) (UniProt P11362); assay: Inhibition of human FGFR1 at 10 uM after 60 mins by TR-FRET assay; values are per cent of control
[10] = molecular target: 3-phosphoinositide-dependent protein kinase 1 (Homo sapiens) (UniProt O15530); assay: Inhibition of human PDK1 at 10 uM after 60 mins by TR-FRET assay; values are per cent of control
[11] = molecular target: Ephrin type-A receptor 5 (Homo sapiens) (UniProt P54756); assay: Inhibition of human EphA5 at 10 uM after 60 mins by TR-FRET assay; conditions: values are per cent of control
[12] = test system: Receptor-type tyrosine-protein kinase FLT3 (Homo sapiens), P36888 [D835Y]; assay: Inhibition of human Flt3 D835Y mutant at 10 uM after 60 mins by TR-FRET assay; values are per cent of control
[13] = molecular target: Tyrosine-protein kinase Yes (Homo sapiens) (UniProt P07947); assay: Inhibition of human Yes at 10 uM after 60 mins by TR-FRET assay; values are per cent of control
[14] = test system: Mast/stem cell growth factor receptor Kit (Homo sapiens), P10721 [V654A]; assay: Inhibition of human c-Kit V654A mutant at 10 uM after 60 mins by TR-FRET assay; values are per cent of control
[15] = test system: Epidermal growth factor receptor (Homo sapiens), P00533 [L861Q]; assay: Inhibition of human EGFR L861Q mutant at 10 uM after 60 mins by TR-FRET assay; type: protein assay; conditions: values are per cent of control
[16] = molecular target: Fibroblast growth factor receptor 2 (Homo sapiens) (UniProt P21802); assay: Inhibition of human FGFR2 at 10 uM after 60 mins by TR-FRET assay; values are per cent of control
[17] = test system: Epidermal growth factor receptor (Homo sapiens), P00533 [L858R,T790M]; conditions: 10 uM
Description: Inhibition of human EGFR T790M, L858R mutant at 10 uM after 60 mins by TR-FRET assay

[18] = molecular target: Serine/threonine-protein kinase TBK1 (Homo sapiens) (UniProt Q9UHD2); assay: Inhibition of human TBK1 at 10 uM after 60 mins by TR-FRET assay; values are per cent of control
[19] = molecular target: Cyclin-dependent kinase 5/CDK5 activator 1 (Homo sapiens) (UniProt Q00535+Q15078); assay: Inhibition of human CDK5/p25 at 10 uM after 60 mins by TR-FRET assay; values are per cent of control
[20] = molecular target: Serine/threonine-protein kinase tousled-like 2 (Homo sapiens) (UniProt Q86UE8); assay: Inhibition of human TLK2 at 10 uM after 60 mins by TR-FRET assay; values are per cent of control
Homo sapiens = species: Homo sapiens; assay: Inhibition of human PKA at 10 uM after 60 mins by TR-FRET assay; values are per cent of control
[21] = molecular target: Serine/threonine-protein kinase Sgk3 (Homo sapiens) (UniProt Q96BR1); assay: Inhibition of human SGK3 at 10 uM after 60 mins by TR-FRET assay; values are per cent of control
[22] = molecular target: Receptor-interacting serine/threonine-protein kinase 2 (Homo sapiens) (UniProt O43353); assay: Inhibition of human RIPK2 at 10 uM after 60 mins by TR-FRET assay; values are per cent of control
[23] = molecular target: Tyrosine-protein kinase receptor UFO (Homo sapiens) (UniProt P30530); assay: Inhibition of human Axl at 10 uM after 60 mins by TR-FRET assay; values are per cent of control
[24] = molecular target: BDNF/NT-3 growth factors receptor (Homo sapiens) (UniProt Q16620); assay: Inhibition of human TrkB at 10 uM after 60 mins by TR-FRET assay; values are per cent of control
[25] = test system: Epidermal growth factor receptor (Homo sapiens), P00533 [L858R]; assay: Inhibition of human EGFR L858R mutant at 10 uM after 60 mins by TR-FRET assay; type: protein assay; conditions: values are per cent of control
[26] = molecular target: Ephrin type-B receptor 4 (Homo sapiens) (UniProt P54760); assay: Inhibition of human EphB4 at 10 uM after 60 mins by TR-FRET assay; values are per cent of control
[27] = molecular target: Serine/threonine-protein kinase ULK3 (Homo sapiens) (UniProt Q6PHR2); assay: Inhibition of human ULK3 at 10 uM after 60 mins by TR-FRET assay; conditions: values are per cent of control
[28] = molecular target: Dual specificity mitogen-activated protein kinase kinase 7 (Homo sapiens) (UniProt O14733); assay: Inhibition of human MKK7beta at 10 uM after 60 mins by TR-FRET assay; conditions: values are per cent of control

Sequence of Serine/threonine-protein kinase TBK1 (Homo sapiens) (Q9UHD2 whole entry): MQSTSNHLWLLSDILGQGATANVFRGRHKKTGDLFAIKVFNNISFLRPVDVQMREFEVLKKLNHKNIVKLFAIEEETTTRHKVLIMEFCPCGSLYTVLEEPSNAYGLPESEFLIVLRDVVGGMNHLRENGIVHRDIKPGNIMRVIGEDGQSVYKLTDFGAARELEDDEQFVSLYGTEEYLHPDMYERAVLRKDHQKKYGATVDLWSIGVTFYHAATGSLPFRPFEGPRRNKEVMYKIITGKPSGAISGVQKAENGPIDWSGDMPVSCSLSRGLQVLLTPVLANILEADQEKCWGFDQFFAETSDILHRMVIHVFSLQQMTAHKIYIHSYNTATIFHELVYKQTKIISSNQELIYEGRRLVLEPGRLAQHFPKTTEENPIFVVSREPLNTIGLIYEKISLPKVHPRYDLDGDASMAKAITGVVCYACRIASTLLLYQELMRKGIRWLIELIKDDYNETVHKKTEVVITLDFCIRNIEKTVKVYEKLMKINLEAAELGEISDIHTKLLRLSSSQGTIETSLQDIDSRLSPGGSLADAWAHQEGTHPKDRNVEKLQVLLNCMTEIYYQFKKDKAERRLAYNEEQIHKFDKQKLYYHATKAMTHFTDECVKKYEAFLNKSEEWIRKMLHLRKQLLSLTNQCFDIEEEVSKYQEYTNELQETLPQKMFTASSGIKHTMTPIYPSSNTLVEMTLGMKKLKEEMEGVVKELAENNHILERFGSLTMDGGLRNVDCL
Sequence of Ephrin type-A receptor 5 (Homo sapiens) (P54756 whole entry): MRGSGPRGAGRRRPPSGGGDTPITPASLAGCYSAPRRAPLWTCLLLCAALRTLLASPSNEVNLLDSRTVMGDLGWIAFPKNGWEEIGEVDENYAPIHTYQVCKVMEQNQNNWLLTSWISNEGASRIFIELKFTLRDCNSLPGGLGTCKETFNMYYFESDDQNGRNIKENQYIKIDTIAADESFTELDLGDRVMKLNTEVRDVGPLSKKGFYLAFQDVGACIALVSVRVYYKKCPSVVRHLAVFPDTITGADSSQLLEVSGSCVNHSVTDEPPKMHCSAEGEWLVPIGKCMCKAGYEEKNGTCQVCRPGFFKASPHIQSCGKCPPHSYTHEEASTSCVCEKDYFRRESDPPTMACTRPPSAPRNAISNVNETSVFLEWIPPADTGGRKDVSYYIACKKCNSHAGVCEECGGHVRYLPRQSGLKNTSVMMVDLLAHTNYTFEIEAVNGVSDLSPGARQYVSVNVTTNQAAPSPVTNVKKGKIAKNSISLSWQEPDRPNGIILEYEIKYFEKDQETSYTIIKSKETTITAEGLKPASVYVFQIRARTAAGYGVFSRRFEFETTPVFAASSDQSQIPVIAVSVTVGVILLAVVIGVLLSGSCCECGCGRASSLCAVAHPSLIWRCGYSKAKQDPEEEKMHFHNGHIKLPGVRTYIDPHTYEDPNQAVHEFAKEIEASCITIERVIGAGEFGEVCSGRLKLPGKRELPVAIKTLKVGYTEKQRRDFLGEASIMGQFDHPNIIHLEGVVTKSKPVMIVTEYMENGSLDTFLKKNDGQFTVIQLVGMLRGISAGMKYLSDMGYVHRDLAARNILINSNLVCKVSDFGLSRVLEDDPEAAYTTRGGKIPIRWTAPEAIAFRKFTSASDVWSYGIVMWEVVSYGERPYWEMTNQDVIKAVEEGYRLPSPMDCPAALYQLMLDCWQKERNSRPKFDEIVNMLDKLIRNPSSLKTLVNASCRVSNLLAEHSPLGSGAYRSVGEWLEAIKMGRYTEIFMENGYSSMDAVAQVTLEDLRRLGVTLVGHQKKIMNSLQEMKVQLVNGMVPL
Sequence of BDNF/NT-3 growth factors receptor (Homo sapiens) (Q16620 32-822 limits assumed): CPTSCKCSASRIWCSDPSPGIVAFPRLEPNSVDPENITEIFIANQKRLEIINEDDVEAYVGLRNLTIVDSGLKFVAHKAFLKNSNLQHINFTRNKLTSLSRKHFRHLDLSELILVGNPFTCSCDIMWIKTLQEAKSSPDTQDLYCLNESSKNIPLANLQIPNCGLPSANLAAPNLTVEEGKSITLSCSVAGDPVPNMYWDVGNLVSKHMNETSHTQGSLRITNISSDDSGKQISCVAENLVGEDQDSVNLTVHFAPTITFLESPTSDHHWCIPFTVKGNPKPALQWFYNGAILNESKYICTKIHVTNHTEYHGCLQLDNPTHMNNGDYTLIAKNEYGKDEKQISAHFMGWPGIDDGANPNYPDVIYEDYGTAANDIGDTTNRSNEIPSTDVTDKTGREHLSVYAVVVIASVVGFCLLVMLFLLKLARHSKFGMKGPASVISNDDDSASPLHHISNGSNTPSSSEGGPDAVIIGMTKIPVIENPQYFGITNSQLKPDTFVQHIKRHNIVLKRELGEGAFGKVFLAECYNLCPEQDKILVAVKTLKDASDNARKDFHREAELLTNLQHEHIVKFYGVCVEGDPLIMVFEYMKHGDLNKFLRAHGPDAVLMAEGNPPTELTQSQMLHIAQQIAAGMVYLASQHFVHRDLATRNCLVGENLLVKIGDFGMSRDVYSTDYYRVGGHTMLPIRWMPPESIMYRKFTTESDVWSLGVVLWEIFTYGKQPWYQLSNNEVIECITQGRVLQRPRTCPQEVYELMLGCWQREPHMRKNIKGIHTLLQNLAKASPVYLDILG
Sequence of Serine/threonine-protein kinase Sgk3 (Homo sapiens) (Q96BR1 whole entry): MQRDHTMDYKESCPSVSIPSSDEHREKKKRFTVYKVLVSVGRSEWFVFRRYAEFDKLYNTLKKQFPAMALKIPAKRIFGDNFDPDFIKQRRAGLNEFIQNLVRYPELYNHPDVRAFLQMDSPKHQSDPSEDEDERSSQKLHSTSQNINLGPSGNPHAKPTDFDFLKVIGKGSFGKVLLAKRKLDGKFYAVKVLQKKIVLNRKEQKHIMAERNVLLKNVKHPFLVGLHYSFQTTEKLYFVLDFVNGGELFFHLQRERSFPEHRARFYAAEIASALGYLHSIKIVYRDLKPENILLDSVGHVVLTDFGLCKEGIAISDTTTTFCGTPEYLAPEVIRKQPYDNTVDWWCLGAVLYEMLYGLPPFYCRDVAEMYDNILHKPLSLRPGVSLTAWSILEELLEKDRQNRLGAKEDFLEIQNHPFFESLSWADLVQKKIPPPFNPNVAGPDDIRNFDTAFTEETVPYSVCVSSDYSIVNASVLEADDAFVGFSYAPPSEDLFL
Sequence of Serine/threonine-protein kinase tousled-like 2 (Homo sapiens) (Q86UE8 whole entry, looked up): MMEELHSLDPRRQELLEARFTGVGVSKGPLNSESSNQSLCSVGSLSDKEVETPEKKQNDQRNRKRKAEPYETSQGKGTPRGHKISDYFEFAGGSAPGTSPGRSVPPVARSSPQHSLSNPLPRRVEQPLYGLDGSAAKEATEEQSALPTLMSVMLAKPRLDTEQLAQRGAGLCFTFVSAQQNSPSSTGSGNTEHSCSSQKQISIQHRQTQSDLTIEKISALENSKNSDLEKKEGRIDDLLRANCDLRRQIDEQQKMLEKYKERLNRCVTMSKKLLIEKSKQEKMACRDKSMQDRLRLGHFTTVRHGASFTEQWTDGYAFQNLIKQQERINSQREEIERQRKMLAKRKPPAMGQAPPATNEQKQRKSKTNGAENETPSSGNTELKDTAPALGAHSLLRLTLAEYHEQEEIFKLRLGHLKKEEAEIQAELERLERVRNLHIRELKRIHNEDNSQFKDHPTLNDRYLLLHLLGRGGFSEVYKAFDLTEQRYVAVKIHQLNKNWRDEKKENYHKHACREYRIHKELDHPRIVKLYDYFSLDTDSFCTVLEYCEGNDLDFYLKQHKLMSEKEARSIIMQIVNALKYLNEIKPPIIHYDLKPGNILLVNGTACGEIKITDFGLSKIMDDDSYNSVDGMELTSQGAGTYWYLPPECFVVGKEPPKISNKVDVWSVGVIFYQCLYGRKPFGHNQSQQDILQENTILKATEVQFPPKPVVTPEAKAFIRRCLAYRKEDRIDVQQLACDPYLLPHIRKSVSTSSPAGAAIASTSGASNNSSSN
Sequence of Epidermal growth factor receptor (Homo sapiens), P00533 [L861Q] (P00533 whole entry L861Q): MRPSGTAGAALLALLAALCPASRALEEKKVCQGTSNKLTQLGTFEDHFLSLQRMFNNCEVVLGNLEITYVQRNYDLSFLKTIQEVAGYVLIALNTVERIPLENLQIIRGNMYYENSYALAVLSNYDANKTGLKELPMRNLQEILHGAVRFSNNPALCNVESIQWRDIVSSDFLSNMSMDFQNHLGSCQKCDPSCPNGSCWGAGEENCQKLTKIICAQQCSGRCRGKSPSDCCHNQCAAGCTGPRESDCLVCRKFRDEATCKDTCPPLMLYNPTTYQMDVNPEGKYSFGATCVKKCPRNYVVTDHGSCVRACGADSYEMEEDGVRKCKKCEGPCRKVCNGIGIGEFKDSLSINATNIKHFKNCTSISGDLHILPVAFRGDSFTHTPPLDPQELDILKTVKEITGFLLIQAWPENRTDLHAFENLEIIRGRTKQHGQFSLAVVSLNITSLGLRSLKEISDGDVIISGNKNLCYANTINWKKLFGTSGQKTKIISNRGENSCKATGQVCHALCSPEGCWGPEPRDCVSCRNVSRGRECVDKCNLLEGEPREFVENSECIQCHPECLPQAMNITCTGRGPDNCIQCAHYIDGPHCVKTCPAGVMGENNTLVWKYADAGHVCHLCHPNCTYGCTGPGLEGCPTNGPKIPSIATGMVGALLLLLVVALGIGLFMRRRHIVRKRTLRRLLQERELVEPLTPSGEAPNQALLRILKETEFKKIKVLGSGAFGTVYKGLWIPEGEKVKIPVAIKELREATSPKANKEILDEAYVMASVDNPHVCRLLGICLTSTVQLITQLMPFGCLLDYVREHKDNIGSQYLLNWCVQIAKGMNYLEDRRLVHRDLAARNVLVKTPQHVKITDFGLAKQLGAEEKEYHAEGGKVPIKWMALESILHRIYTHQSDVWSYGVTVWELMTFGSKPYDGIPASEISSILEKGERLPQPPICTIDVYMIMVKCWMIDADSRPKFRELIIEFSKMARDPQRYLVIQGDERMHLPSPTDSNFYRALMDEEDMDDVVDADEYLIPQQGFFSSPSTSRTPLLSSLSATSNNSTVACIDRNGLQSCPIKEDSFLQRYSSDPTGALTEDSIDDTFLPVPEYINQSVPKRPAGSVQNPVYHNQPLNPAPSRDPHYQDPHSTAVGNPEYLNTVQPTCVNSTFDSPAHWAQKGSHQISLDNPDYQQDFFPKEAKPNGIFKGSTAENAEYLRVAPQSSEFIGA

Work on `S=c1[nH]nc(-c2ccncc2)n1-c1ccc2ccccc2c1` yielded a residual activity [1] of 96%, a residual activity [2] of 94% and a residual activity [3] of 110%. The residual activity [4] was 99%, the residual activity [5] was 101% and the residual activity [6] was 147%. For the same compound, the residual activity [7] was 107%, the residual activity [8] was 113% and the residual activity [9] was 98%. The residual activity [10] was 108%, the residual activity [11] was 110% and the residual activity [12] was 99%. It also gave a residual activity [13] of 107%, a residual activity [14] of 112% and a residual activity [15] of 64%. It also gave a residual activity [16] of 92%, an inhibition [17] of 88% and a residual activity [18] of 108%. The residual activity [19] was 112%, the residual activity [20] was 110% and the residual activity (Homo sapiens) was 93%. For the same compound, the residual activity [21] was 102%, the residual activity [22] was 111% and the residual activity [23] was 110%. The residual activity [24] was 114%, the residual activity [25] was 75% and the residual activity [26] was 108%. The residual activity [27] was 107% and the residual activity [28] was 126%.
